What was measured:
human ATIC (AICARFTase) = target: T1, human ATIC (AICARFTase) (Homo sapiens, UniProt P31939); assay: In vitro AICARFTase (ATIC) enzyme assay (THF formation from 10-CHOTHF); assay type: biochemical; details: monoglutamyl antifolates; mean (standard error), at least three replicate assays; tested up to 200 μM
T1 construct: full-length human ATIC; made in house; host or cells: E. coli Rosetta (DE3)pLysS
Description: We directly tested inhibition potencies by in vitro assays using purified GARFTase and ATIC (AICARFTase) to calculate inhibition dissociation constants (Ki’s) (Table 2).[45]
N-terminal hexahistidine-tagged GARFTase (formyltransferase domain; residues 808–1010) and full-length human ATIC were expressed in Rosetta (DE3)pLysS cells.[45],[48] Cultures (1 L) were grown at 37 °C in LB media with 100 μg/mL ampicillin and 34 μg/mL chloramphenicol until OD600 reached 0.6. Isopropyl β-D-1-thiogalactopyranoside (500 μM) was added, and the cells were incubated at 20 °C for 16–18 h. The cultures were pelleted and resuspended in 40 mL of 25 mM Tris–HCl, pH 7.5, 300 mM NaCl, 5 mM β-mercaptoethanol (β-ME), 10 mM CaCl2, 10 mM MgCl2, 40 mg lysozyme, and 8 U DNAse I (Sigma). The cells were lysed by emulsification.
His-ATIC was purified from the lysate by immobilized metal affinity chromatography with a 4 mL Ni-NTA column (Gold Biotechnology).[45] The column was washed with 5 CV of 25 mM Tris–HCl, pH 7.5, 300 mM NaCl, 10 mM imidazole, and 5 mM β-ME (wash buffer) followed by 5 CV of the wash buffer containing 25 mM imidazole. The protein was eluted with 5 CV of the elution buffer containing components of the wash buffer with 300 mM imidazole. Further purification was by ÄKTA FPLC (GE Healthcare) with a Superdex 200 16/60 (GE Healthcare) column equilibrated with 20 mM Tris–HCl, pH 7.5, 150 mM NaCl, 50 mM KCl, 5 mM EDTA, and 5 mM dithiothreitol (DTT). His-ATIC was stored at 150 μM at 4 °C in this buffer (up to 6 months) or at 100 μM with 20% glycerol at −80 °C for longer-term storage.
GARFTase catalytic activity was measured by monitoring THF formation from 10-CHOTHF.[32],[45],[48] GARFTase assays included 40 μM 10-CHO-THF, 50 nM His-GARFTase, 15 μM α,β-GAR, and a range of inhibitor concentrations in 25 mM Tris–HCl, pH 8.0, 300 mM NaCl, and 5 mM β-ME at 37 °C.[45] AICARFTase catalytic activity was measured by monitoring THF formation from 10-CHOTHF.[54] Reactions included 50 μM 10-CHOTHF, 100 nM His-ATIC, 50 μM ZMP, and inhibitors in 32.6 mM Tris–HCl, pH 7.5, 25 mM KCl, and 5 mM β-ME at 25 ° C.[45] Kinetic measurements were recorded in triplicate in a UV-transparent 96-well plate (Costar 3635) at 298 nm using a BioTek Synergy Neo2 Plate Reader. Initial slopes were graphed against inhibitor concentrations and fit to a three-parameter nonlinear regression to calculate IC50 values for each compound (GraphPad Prism 8.0). […] SHMT2 activity was assayed by monitoring NADH production with a coupled assay including 500 nM His-SHMT2 and 10 μM His-MTHFD2 ([…] molar ratio His-SHMT2/His-MTHFD2). NADH production by His-MTHFD2 was monitored by fluorescence at 470 nm with excitation at 360 nm (Synergy Neo2 Biotek plate reader). Inhibition constants (Ki’s) were calculated from the IC50 values using the equation Ki = IC50/([S]/KM + 1) and the Km and substrate concentration for THF. The THF concentration in the reaction was […]. The calculated Km value for THF with His-SHMT2 was 62.8 μM.

KB tumor cells = assay: Metabolite rescue of growth inhibition in KB cells; assay type: cell-based, human; details: glycine- and nucleoside-free media; for Protection from growth inhibition by glycine plus adenosine over adenosine alone: 160 μM glycine combined with 60 μM adenosine; for Protection from growth inhibition by adenosine: inhibitor up to 1000 nM, 60 μM adenosine alone
Description: Upper panel: schematic of C1 metabolism. Undefined abbreviations include the following: DHF, dihydrofolate; THF, tetrahydrofolate; FAICAR, formyl 5-aminoimidazole-4-carboxamide ribonucleotide; fGAR, formyl GAR; and 5,10-meTHF, 5,10-methylene tetrahydrofolate. Lower panels: KB cells were plated (4000 cells/well) in glycine-, nucleoside-, and folate-free RPMI 1640 medium with 10% dialyzed fetal bovine serum, antibiotics, L-glutamine, and 2 nM leucovorin over a range of inhibitor concentrations in the presence of adenosine (60 μM), glycine (160 μM), thymidine (10 μM), or AICA (320 μM). As shown, combined glycine plus adenosine or AICA was also tested to identify potential mitochondrial C1 targeting.[45] Cell proliferation was assayed with a fluorescence-based assay.[26] Data are representative of at least triplicate experiments (presented as mean values plus/minus standard errors). Methods are described in the Experimental Section, and additional metabolite rescue data for 4, 5, and 8–11 are presented in Figure S3 (Supporting Information).
Metabolite “rescue” experiments have been used to identify targeted pathways for novel antifolate inhibitors including de novo purine nucleotide and thymidylate biosynthesis (protection by adenosine and thymidine, respectively)[25]−[27],[29],[30],[32],[43],[45]−[47] and mitochondrial C1 metabolism (protection by glycine and adenosine).[45] To gain insights into the targeted pathways that contribute to the loss of KB tumor cell proliferation upon treatment with compounds 3–9, we tested the reversal of growth inhibition by the active compounds in Table 1 (up to 1000 nM) in glycine- and nucleoside-free media in the presence of 60 μM adenosine, 160 μM glycine, or 10 μM thymidine alone or with combined adenosine and glycine. The use of glycine- and nucleoside-free media for these experiments expands the ability to identify causal intracellular targets (including previously unrecognized mitochondrial targets[45]) that can be confirmed by targeted metabolomics and direct in vitro assays (below). […] The results of these experiments are shown in Figure 7 (lower panel) and in Figure S3 (Supporting Information).
AICA circumvents the first folate-dependent enzyme, GARFTase, and is directly metabolized to ZMP (AICAR), thus providing a substrate for AICARFTase[26],[32],[46] (Figure 7, upper panel). This distinguishes primary inhibition at GARFTase (protection by AICA) versus AICARFTase (incomplete protection by AICA) for inhibitors of de novo purine biosynthesis.[25]
Additional proliferation assays with metabolite rescue used KB cells to identify the targeted pathway and enzyme(s) in folate- and glycine-free RPMI1640, DFBS, 2 mM glutamine, and antibiotics. […] These assays have been previously described.[25],[26],[45]

T1 sequence (P31939 whole entry): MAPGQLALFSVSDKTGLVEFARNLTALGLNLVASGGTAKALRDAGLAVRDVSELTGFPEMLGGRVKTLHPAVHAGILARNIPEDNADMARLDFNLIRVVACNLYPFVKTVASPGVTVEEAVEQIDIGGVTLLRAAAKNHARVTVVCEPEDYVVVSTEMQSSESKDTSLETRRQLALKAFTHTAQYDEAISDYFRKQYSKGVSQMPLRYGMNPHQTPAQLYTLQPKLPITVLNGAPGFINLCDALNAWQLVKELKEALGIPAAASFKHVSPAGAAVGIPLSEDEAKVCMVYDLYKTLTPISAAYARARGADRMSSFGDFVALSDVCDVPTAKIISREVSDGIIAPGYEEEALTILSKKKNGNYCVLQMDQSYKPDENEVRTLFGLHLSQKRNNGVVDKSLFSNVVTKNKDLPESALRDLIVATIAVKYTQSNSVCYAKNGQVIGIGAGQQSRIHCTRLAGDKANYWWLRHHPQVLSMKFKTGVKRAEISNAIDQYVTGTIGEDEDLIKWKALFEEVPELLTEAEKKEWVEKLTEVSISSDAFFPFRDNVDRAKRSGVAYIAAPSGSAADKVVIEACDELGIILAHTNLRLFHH

SMILES	Ki (human ATIC (AICARFTase))	Protection from growth inhibition by glycine plus adenosine over adenosine alone (KB tumor cells)	Protection from growth inhibition by adenosine (KB tumor cells)
Nc1nc2sc(CCCc3ccc(C(=O)N[C@@H](CCC(=O)O)C(=O)O)cc3)cc2c(=O)[nH]1 [Compound 1]	> 200 µM	substantially enhanced and was complete	
Nc1nc2sc(CCCCc3cccc(C(=O)N[C@@H](CCC(=O)O)C(=O)O)n3)cc2c(=O)[nH]1 [Compound 3, (6-(4-(2-Amino-4-oxo-3,4-dihydrothieno[2,3-d]pyrimidin-6-yl)butyl)picolinoyl)-L-glutamic Acid]	18.4 µM		
Nc1nc2sc(CCCCc3ccc(C(=O)N[C@@H](CCC(=O)O)C(=O)O)nc3)cc2c(=O)[nH]1 [Compound 4, (5-(4-(2-Amino-4-oxo-3,4-dihydrothieno[2,3-d]pyrimidin-6-yl)butyl)picolinoyl)-L-glutamic Acid]	12.1 µM	slightly and reproducibly enhanced	substantially protective
Nc1nc2sc(CCCCc3cnc(C(=O)N[C@@H](CCC(=O)O)C(=O)O)c(F)c3)cc2c(=O)[nH]1 [Compound 5, (5-(4-(2-Amino-4-oxo-3,4-dihydrothieno[2,3-d]pyrimidin-6-yl)butyl)-3-fluoropicolinoyl)-L-glutamic Acid]	> 200 µM		completely protective
Nc1nc2sc(CCCc3ccc(C(=O)N[C@@H](CCC(=O)O)C(=O)O)c(F)c3)cc2c(=O)[nH]1 [Compound 6, (4-(3-(2-Amino-4-oxo-3,4-dihydrothieno[2,3-d]pyrimidin-6-yl)propyl)-2-fluorobenzoyl)-L-glutamic Acid]	7.3 µM	substantially enhanced and was complete	
Nc1nc2sc(CCCCc3ccc(C(=O)N[C@@H](CCC(=O)O)C(=O)O)c(F)c3)cc2c(=O)[nH]1 [Compound 7, (4-(4-(2-Amino-4-oxo-3,4-dihydrothieno[2,3-d]pyrimidin-6-yl)butyl)-2-fluorobenzoyl)-L-glutamic Acid]	19.4 µM	slightly and reproducibly enhanced	substantially protective
Nc1nc2sc(CCCc3csc(C(=O)N[C@@H](CCC(=O)O)C(=O)O)c3F)cc2c(=O)[nH]1 [Compound 8, (4-(3-(2-Amino-4-oxo-3,4-dihydrothieno[2,3-d]pyrimidin-6-yl)propyl)-3-fluorothiophene-2-carbonyl)-L-glutamic Acid]	14.5 µM		completely protective
Nc1nc2sc(CCCCc3csc(C(=O)N[C@@H](CCC(=O)O)C(=O)O)c3F)cc2c(=O)[nH]1 [Compound 9, (4-(4-(2-Amino-4-oxo-3,4-dihydrothieno[2,3-d]pyrimidin-6-yl)butyl)-3-fluorothiophene-2-carbonyl)-L-glutamic Acid]	23.7 µM	slightly and reproducibly enhanced	substantially protective
